Usually IC50 stands for the concentration that inhibits the measured activity by half. Low values mean greater potency, high ones weaker potency.

The nature of series [1]: The half-life period for the release of paclitaxel after cyclization was determined for the compound. Format: ADME.
Series [2] can be described thus: Percentage tumor cure rate in when treated with 125 mg/Kg dose in athymic nude mice. Format: functional, Mus musculus.
A short description of series [3]: Compound along with dithiothreitol (DTT) was evaluated for its cytotoxicity against L2987 lung carcinoma cells. The class given is functional, cell-based. As to conditions: Homo sapiens.
A short description of series [4]: Compound was evaluated for its cytotoxicity against L2987 lung carcinoma cells. Format: functional, cell-based. Conditions: Homo sapiens.
A short description of series [5]: Dose required for the compound to elicit the Antitumor activity: No effective activity. The class given is functional.
Series [6] in a line: Maximum Tolerated Dose required for the compound to regress the tumors for the Antitumor activity: No effective activity. The class given is functional.

Each structure is given as a SMILES string.

Compound `CC(=O)O[C@H]1C(=O)[C@@]2(C)[C@H]([C@H](OC(=O)c3ccccc3)[C@]3(O)C[C@H](OC(=O)[C@H](OC(=O)C(C)(C)CCSSC[C@H](C)C(=O)N4CCC[C@@H]4C(=O)O)[C@@H](NC(=O)c4ccccc4)c4ccccc4)C(C)=C1C3(C)C)[C@]1(OC(C)=O)CO[C@@H]1C[C@@H]2O` displayed a T1/2 in series [1] of 25 min. The same compound returned a Tumor cure in series [2] of 60%. In addition, the concentration for half-maximal inhibition (IC50) was 2.3 µM in series [3] and 130 µM in series [4].

In turn, `CC(=O)O[C@H]1C(=O)[C@@]2(C)[C@H]([C@H](OC(=O)c3ccccc3)[C@]3(O)C[C@H](OC(=O)[C@H](OC(=O)C(C)(C)CCSSC4OC(CO)C(O)C(O)C4O)C(NC(=O)c4ccccc4)c4ccccc4)C(C)=C1C3(C)C)[C@]1(OC(C)=O)CO[C@@H]1C[C@@H]2O` (stereo partly drawn) displayed a T1/2 in series [1] of 12 min. Further, the figures for the half-maximal inhibitory concentration (IC50) in series [3] and in series [4] were 0.2 µM and 5.7 µM, respectively. The Dose in series [5] was 85 mg/kg.

Take `CC(=O)O[C@H]1C(=O)[C@@]2(C)[C@H]([C@H](OC(=O)c3ccccc3)[C@]3(O)C[C@H](OC(=O)[C@H](OC(=O)C(C)(C)CCSSc4ccccn4)[C@@H](NC(=O)c4ccccc4)c4ccccc4)C(C)=C1C3(C)C)[C@]1(OC(C)=O)CO[C@@H]1C[C@@H]2O`: the T1/2 in series [1] came to 4 min. Also, the half-inhibitory concentration (IC50) stood at 0.2 µM in series [3] and 6.2 µM in series [4]. Besides, in series [5], the Dose came out at 125 mg/kg.

In turn, `CC(=O)O[C@H]1C(=O)[C@@]2(C)[C@H]([C@H](OC(=O)c3ccccc3)[C@]3(O)C[C@H](OC(=O)[C@H](OC(=O)C(C)(C)CCSSCC(NC(=O)CCC(N)C(=O)O)C(=O)NCC(=O)O)[C@@H](NC(=O)c4ccccc4)c4ccccc4)C(C)=C1C3(C)C)[C@]1(OC(C)=O)CO[C@@H]1C[C@@H]2O` (stereo partly drawn) returned a T1/2 in series [1] above 60 min. Besides, the IC50 in series [3] worked out at 0.4 µM; in series [4], 10.1 µM. In series [5], this compound returned a Dose of 150 mg/kg.

`CC(=O)O[C@H]1C(=O)[C@@]2(C)[C@H]([C@H](OC(=O)c3ccccc3)[C@]3(O)C[C@H](OC(=O)[C@H](O)[C@@H](NC(=O)c4ccccc4)c4ccccc4)C(C)=C1C3(C)C)[C@]1(OC(C)=O)CO[C@@H]1C[C@@H]2O` [PACLITAXEL]: the Dose in series [6] was 30 mg/kg. This compound returned a half-inhibitory concentration (IC50) in series [4] of 0.2 µM.

Source of the values: ChEMBL document CHEMBL1135012, “Reductively activated disulfide prodrugs of paclitaxel” (Bioorg Med Chem Lett, 2002).
